Reference: the NIST ThermoML archive (doi:10.1021/je049656o)
Numbers after ± are expanded uncertainties.

Test: mn = molality of the nth substance listed, in mol/kg
Conditions: 298.15 K, 101.33 kPa, Liquid

O=c1[nH]cc(F)c(=O)[nH]1 [5-fluoro-2,4(1H,3H)-pyrimidinedione] + CO
Conditions	molar enthalpy of solution [kJ/mol]
m1 = 0.000844	14.5 ± 0.58
m1 = 0.000963	14.4 ± 0.58
m1 = 0.001039	14.3 ± 0.57
m1 = 0.00126	14.3 ± 0.57
m1 = 0.001578	14.3 ± 0.57
m1 = 0.001848	14.5 ± 0.58

O=c1[nH]cc(C(F)(F)F)c(=O)[nH]1 [5-(trifluoromethyl)uracil] + CO
Conditions	molar enthalpy of solution [kJ/mol]
m1 = 0.000648	16 ± 0.64
m1 = 0.000687	16.5 ± 0.66
m1 = 0.000724	15.7 ± 0.63
m1 = 0.00076	15.1 ± 0.6
m1 = 0.000813	15 ± 0.6
m1 = 0.000845	15.8 ± 0.63

Oc1ncc(Cl)c(O)n1 [5-chloro-2,4-pyrimidinedione] + CO
Conditions	molar enthalpy of solution [kJ/mol]
m1 = 0.000652	8.85 ± 0.71
m1 = 0.000899	9.62 ± 0.77
m1 = 0.000901	9.58 ± 0.77
m1 = 0.000954	9.31 ± 0.74
m1 = 0.000982	8.83 ± 0.71
m1 = 0.001245	8.85 ± 0.71

O=c1[nH]cc(Br)c(=O)[nH]1 [5-bromouracil] + CO
Conditions	molar enthalpy of solution [kJ/mol]
m1 = 0.000472	14.8 ± 1.2
m1 = 0.000548	14 ± 1.1
m1 = 0.000563	15.6 ± 1.2
m1 = 0.00102	15 ± 1.2
m1 = 0.001023	15.1 ± 1.2
m1 = 0.00125	14.6 ± 1.2

O=c1cc(Cl)[nH]c(=O)[nH]1 [6-chlorouracil] + CO
Conditions	molar enthalpy of solution [kJ/mol]
m1 = 0.000624	16.8 ± 0.67
m1 = 0.000862	17 ± 0.68
m1 = 0.000948	17.3 ± 0.69
m1 = 0.001116	16.9 ± 0.68
m1 = 0.001609	17.9 ± 0.72
m1 = 0.00168	17.4 ± 0.7

O=c1cc[nH]c(=O)[nH]1 [2,4(1H,3H)-pyrimidinedione] + CO
Conditions	molar enthalpy of solution [kJ/mol]
m1 = 0.000848	14.9 ± 0.6
m1 = 0.000858	15.1 ± 0.6
m1 = 0.00105	14 ± 0.56
m1 = 0.00109	14 ± 0.56
m1 = 0.001223	13.7 ± 0.55
m1 = 0.001317	13.7 ± 0.55

O=c1[nH]cc(I)c(=O)[nH]1 [5-iodouracil] + CO
Conditions	molar enthalpy of solution [kJ/mol]
m1 = 0.000481	18.3 ± 0.73
m1 = 0.000487	18.2 ± 0.73
m1 = 0.000551	17.6 ± 0.71
m1 = 0.000618	18.3 ± 0.73
m1 = 0.000626	18 ± 0.72
m1 = 0.000769	17.6 ± 0.7
